# Measurements reported in patent US9539298B2, “Lissencephaly therapeutic agent” (OSAKA CITY UNIVERSITY, priority 2010, dated 2017).
# Test system: fibroblasts derived from human lissencephaly patient (Lis1 +/−)
# Assay: Protein quantitative analysis (western blotting) in human fibroblasts
# Type: cell-based
# Settings: final SNJ-1945 concentration=200μ, 2-hour culture, FIGS. 21 and 22
# Description: In a clean bench, the cells were placed in a 6-well plate in an amount of 3×10^5 cells per well and cultured for 16 hours, thereby adhering the cells to each well. The culture medium in the well was discarded, and the SNJ-1945-containing culture solution (the culture solution containing SNJ-1945-dissolved in Dimethyl Sulfoxide (Sigma, D-5879); final SNJ-1945 concentration=200μ) was added in an amount of 2 ml/well, and a 2-hour culture was performed. As a control, another culture was performed using a culture medium containing the same amount of Dimethyl Sulfoxide (Sigma, D-5879).
# After 2-hour culture by adding SNJ-1945, the cells were washed twice with PBS (−), 500 μl of PBS (−), was added and the cells were scraped with a cell scraper. The scraped cells were collected to a 1.5 ml tube to be subjected to centrifugation for 5 minutes at 4° C. and 15000 rpm; the supernatant was discarded, and a cell precipitate was obtained. […]
# The absorbency of the cell extract was measured, and the protein amount of the entire solution was determined. […] The absorbency at 595 nm was measured using an ARVO Sx (PerkinElmer) 96-well plate reader, and the entire protein amount was determined.
# Then, SDS-PAGE was conducted. […] Based on the protein amount determined by the Bradford method, the cells were loaded to each well of the gel in an amount of 10 μg/well. […]
structure (smiles),measurement,value
"COCCOCCOC(=O)N[C@@H](CC(C)C)C(=O)N[C@@H](Cc1ccccc1)C(=O)C(=O)NC1CC1 [compound 17, ((1S)-1-((((1S)-1-Benzyl-2,3-dioxo-3-(cyclopropylamino)propyl)amino)carbonyl)-3-methylbutyl)carbamic acid 5-methoxy-3-oxapentyl ester]",LIS1 amount (western blotting),recovered nearly to the extent of the LIS1 level
same,amount of cytoplasmatic dynein intermediate chain (western blotting),also increased
